These results are taken from patent EP0368756A1, “Dibenzocycloheptene derivatives, process for their preparation and their use as medicaments” (ROUSSEL-UCLAF, priority 1988, dated 1990).

Structures are written as SMILES.

Assay [1] has as its system couche CA₁ de l'hippocampe. Nature of the assay: Neuronal protective effect in the hippocampus after stereotaxic quinolinic acid injection. Format: in vivo. The settings on record: anaesthetised rat; 20 mg/kg intraperitoneal 30 min before quinolinic acid (5 micrograms) into right hippocampus; cresyl violet histology one week later. How it is done: Recherche de l'effet protecteur neuronal dans l'hippocampe.
L'essai a été réalisé chez le rat anesthésié. Une injection stéréotaxique d'acide quinolinique (5 microgrammes) est réalisée dans l'hippocampe droit. Le produit à étudier (ou le véhicule seul pour le lot d'animaux témoins) est administré par voie intrapéritonéale 30 minutes auparavant.
Une semaine plus tard, les cerveaux sont prélevés et coupés en tranches fines. Les tranches sont colorées au crésyl violet et photographiées.
Chez les animaux témoins, l'acide quinolinique détruit la couche CA₁ de l'hippocampe droit tandis que l'hippocampe gauche (contrôle) non injecté, est intacte. L'hippocampe gauche des animaux n'a reçu aucun traitement. Chez les animaux ayant reçu une administration de 20 mg/kg du produit de l'exemple 7, par voie intrapéritonéale, la couche CA₁ de l'hippocampe droit est protégée donc identique à celle de l'hippocampe gauche qui n'a pas reçu d'injection d'acide quinolinique.

The test system of assay [2] is convulsions toniques entrainées par le pentétrazol. Nature of the assay: Anticonvulsant activity against pentetrazol-induced tonic convulsions. The format is in vivo, souris. The note with it: sc; mouse; pentetrazol 160 mg/kg s.c. given 1 hour after the product; tonic convulsions noted for 30 minutes; read-out: DA₅₀ ou dose qui diminue de 50 % le nombre de convulsions toniques entrainées par le pentétrazol. How it is done: Activité anticonvulsivante chez la souris.
L'essai est réalisé sur des lots de 10 souris. L'agent convulsivant est le pentétrazol, en solution aqueuse à la dose de 160 mg/kg s.c. sous un volume de 0,5 ml/20 g, administré 1 heure après le produit de l'exemple 7. Les animaux sont isolés et les convulsions toniques sont notées pendant 30 minutes.
La DA₅₀ ou dose qui diminue de 50 % le nombre de convulsions toniques entrainées par le pentétrazol est de 2,3 mg/kg.

As for `Nc1ccc2c(c1)C1Cc3ccccc3C2N1` (centres unmarked) [exemple 7, 8-amino 10,11-dihydro 5,10-imino 5H-dibenzo[a,d]-cycloheptène], the “effet protecteur neuronal dans l'hippocampe” value in assay [1] was “protégée”. Further, the ED50 in assay [2] was found to be 2.3 mg/kg.
